Measurements reported in US9938273B2 (Plexxikon Inc., priority 2015, dated 2018).

The compounds below were run against T1, BA/F3-FLT3-ITD + D835Y cells (Homo sapiens, UniProt P36888, D835Y, cells depend on it, form not given) (assay: Cell proliferation assay (CellTiter-Glo), engineered BA/F3 cells). Conditions: BaF3 FLT3 ITD/D835Y cells, 3d-Growth; read-out: BaF3_FLT3 ITD/D835Y 3d-Growth: IC50.
T1 sequence (P36888 1-993 D835Y): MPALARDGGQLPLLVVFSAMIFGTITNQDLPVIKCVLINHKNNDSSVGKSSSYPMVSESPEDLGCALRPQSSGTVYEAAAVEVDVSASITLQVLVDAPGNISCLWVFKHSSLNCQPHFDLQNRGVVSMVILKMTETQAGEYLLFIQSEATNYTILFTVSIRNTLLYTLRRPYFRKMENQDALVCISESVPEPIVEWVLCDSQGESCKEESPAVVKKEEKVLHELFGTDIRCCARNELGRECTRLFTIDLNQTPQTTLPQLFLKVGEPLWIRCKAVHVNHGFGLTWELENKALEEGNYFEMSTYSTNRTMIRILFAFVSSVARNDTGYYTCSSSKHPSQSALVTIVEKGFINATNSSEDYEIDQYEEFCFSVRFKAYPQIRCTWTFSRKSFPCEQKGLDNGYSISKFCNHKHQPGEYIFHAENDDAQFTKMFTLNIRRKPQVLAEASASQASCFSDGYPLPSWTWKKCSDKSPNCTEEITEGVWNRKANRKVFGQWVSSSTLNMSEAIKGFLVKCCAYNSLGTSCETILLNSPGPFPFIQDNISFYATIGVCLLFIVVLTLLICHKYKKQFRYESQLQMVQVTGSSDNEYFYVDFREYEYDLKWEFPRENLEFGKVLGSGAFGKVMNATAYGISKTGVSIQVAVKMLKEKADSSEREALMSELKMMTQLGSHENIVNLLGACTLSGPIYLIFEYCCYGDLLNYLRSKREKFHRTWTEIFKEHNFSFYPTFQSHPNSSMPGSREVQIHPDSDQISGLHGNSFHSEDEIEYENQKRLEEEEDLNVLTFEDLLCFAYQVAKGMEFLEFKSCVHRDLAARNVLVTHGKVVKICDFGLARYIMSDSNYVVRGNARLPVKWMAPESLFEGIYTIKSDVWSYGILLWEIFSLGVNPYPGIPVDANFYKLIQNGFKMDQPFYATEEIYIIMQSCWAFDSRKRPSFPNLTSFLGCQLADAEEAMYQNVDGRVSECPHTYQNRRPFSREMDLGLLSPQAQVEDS
Type: cell-based, murine
Procedure, shortened: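 MOLM-14 AML cells (endogenous FLT3 ITD, AC220-selected D835Y or F691L variants) or murine Ba/F3 expressing full-length FLT3 ITD/D835Y, without IL-3 for FLT3 dependence, 1×10^4 cells/well. Eight-point 1:3 series from 1 μM final, 0.2% DMSO, 3 days at 37 °C. CellTiter-Glo luminescence (ATP) gave IC50.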

GI50 [µM]	Structure (SMILES)
0.0001 to 10	NC1CCN(C(=O)c2n[nH]c3ccc(-c4cnc5[nH]c(C6=CCN(C(=O)C7CC7)C6)cc5c4)cc23)CC1 [Compound P-0074, (4-amino-1-piperidyl)-[5-[2-[1-(cyclopropanecarbonyl)-2,5-dihydropyrrol-3-yl]-1H-pyrrolo[2,3-b]pyridin-5-yl]-1H-indazol-3-yl]methanone]
0.0001 to 10	CN(C(=O)c1cccc(-c2cnc3[nH]c(-c4ccccc4)cc3c2)n1)C1CCNC1 (stereo not drawn) [Compound P-0076, N-methyl-6-(2-phenyl-1H-pyrrolo[2,3-b]pyridin-5-yl)-N-pyrrolidin-3-yl-pyridine-2-carboxamide]
0.0001 to 10	CNC1CCCN(C(=O)c2cccc(-c3cnc4[nH]c(-c5ccccc5)cc4c3)n2)C1 (stereo not drawn) [Compound P-0080, [3-(methylamino)-1-piperidyl]-[6-(2-phenyl-1H-pyrrolo[2,3-b]pyridin-5-yl)-2-pyridyl]methanone]
0.0001 to 10	CC1(N)CCN(C(=O)c2cccc(-c3cnc4[nH]c(-c5ccccc5)cc4c3)n2)CC1 [Compound P-0081, (4-amino-4-methyl-1-piperidyl)-[6-(2-phenyl-1H-pyrrolo[2,3-b]pyridin-5-yl)-2-pyridyl]methanone]
0.0001 to 10	CC1(N)CCCN(C(=O)c2cccc(-c3cnc4[nH]c(-c5ccccc5)cc4c3)n2)C1 (stereo not drawn) [Compound P-0082, (3-amino-3-methyl-1-piperidyl)-[6-(2-phenyl-1H-pyrrolo[2,3-b]pyridin-5-yl)-2-pyridyl]methanone]
0.0001 to 10	N[C@@H]1CN(C(=O)c2cccc(-c3cnc4[nH]c(-c5ccccc5)cc4c3)n2)CC12CC2 [Compound P-0083, [(7S)-7-amino-5-azaspiro[2.4]heptan-5-yl]-[6-(2-phenyl-1H-pyrrolo[2,3-b]pyridin-5-yl)-2-pyridyl]methanone]
0.0001 to 10	CNC1CCN(Cc2cccc(-c3cnc4[nH]c(-c5ccccc5)cc4c3)n2)C1 (stereo not drawn) [Compound P-0087, N-methyl-1-[[6-(2-phenyl-1H-pyrrolo[2,3-b]pyridin-5-yl)-2-pyridyl]methyl]pyrrolidin-3-amine]
0.0001 to 10	O=C(c1cccc(-c2cnc3[nH]c(-c4ccccc4)cc3c2)n1)N1CCC(F)(F)CC1 [Compound P-0089, (4,4-difluoro-1-piperidyl)-[6-(2-phenyl-1H-pyrrolo[2,3-b]pyridin-5-yl)-2-pyridyl]methanone]
0.0001 to 10	COC(=O)C1(C)CCN(C(=O)c2cccc(-c3cnc4[nH]c(-c5ccccc5)cc4c3)n2)CC1 [Compound P-0092, methyl 4-methyl-1-[6-(2-phenyl-1H-pyrrolo[2,3-b]pyridin-5-yl)pyridine-2-carbonyl]piperidine-4-carboxylate]
